In ChEMBL document CHEMBL1154809, “Conventional and microwave assisted synthesis of small molecule based biologically active heterocyclic amidine derivatives” (2010):
Activity calls are given as the source filed them. The rule behind the calls is not given here.

Key:
HCT-15 = assay: Anticancer activity against human HCT15 cells at 10 uM after 48 hrs by sulforhodamine B assay; format: functional, cell-based
DU-145 = assay: Anticancer activity against human DU145 cells at 10 uM after 48 hrs by sulforhodamine B assay; format: functional, cell-based
A549 = assay: Anticancer activity against human A549 cells at 10 uM after 48 hrs by sulforhodamine B assay; format: functional, cell-based
HOP-62 = assay: Anticancer activity against human HOP62 cells at 10 uM after 48 hrs by sulforhodamine B assay; format: functional, cell-based
IMR-32 = assay: Anticancer activity against human IMR32 cells at 10 uM after 48 hrs by sulforhodamine B assay; format: functional, cell-based
Rattus norvegicus = assay: Antiinflammatory activity against carrageenan-induced paw oedema in Charles Foster albino rat at 50 mg/kg, po administered 30 mins before carrageenan challenge measured after 1 to 3 hrs by water plethysmometer; format: functional
HepG32 = assay: Anticancer activity against human […] cells at 10 uM after 48 hrs by sulforhodamine B assay; format: functional, cell-based

N/C(=N/CCCn1ccnc1)c1ccncc1
Activity (HCT-15): inactive
Activity (DU-145): inactive
Activity (A549): inactive
Activity (HOP-62): inactive
Activity (IMR-32): inactive
Activity (Rattus norvegicus): 10%
Activity (HepG32): inactive

N/C(=N/Cc1ccccn1)c1cnccn1
Activity (HCT-15): inactive
Activity (DU-145): inactive
Activity (A549): inactive
Activity (HOP-62): inactive
Activity (IMR-32): inactive
Activity (Rattus norvegicus): 0%
Activity (HepG32): inactive

N/C(=N/CCc1c[nH]c2ccccc12)c1ccccn1
Activity (HCT-15): inactive
Activity (DU-145): inactive
Activity (A549): inactive
Activity (HOP-62): inactive
Activity (IMR-32): inactive
Activity (Rattus norvegicus): 23.6%
Activity (HepG32): inactive

N/C(=N/Cc1ccccn1)c1ccncc1
Activity (HCT-15): inactive
Activity (DU-145): inactive
Activity (A549): inactive
Activity (HOP-62): inactive
Activity (IMR-32): inactive
Activity (Rattus norvegicus): 33.8%
Activity (HepG32): inactive

N/C(=N/CCCn1ccnc1)c1ccccn1
Activity (HCT-15): inactive
Activity (DU-145): inactive
Activity (A549): inactive
Activity (HOP-62): inactive
Activity (IMR-32): inactive
Activity (Rattus norvegicus): 18.8%
Activity (HepG32): inactive

CC(C)Cc1ccc(C(C)C(=O)O)cc1 (stereo unspecified) [IBUPROFEN]
Activity (HCT-15): inactive
Activity (DU-145): inactive
Activity (A549): inactive
Activity (HOP-62): inactive
Activity (IMR-32): inactive
Activity (Rattus norvegicus): 39%
Activity (HepG32): inactive

N/C(=N/CCc1c[nH]c2ccccc12)c1cnccn1
Activity (HCT-15): inactive
Activity (DU-145): inactive
Activity (A549): inactive
Activity (HOP-62): inactive
Activity (IMR-32): inactive
Activity (Rattus norvegicus): 23.9%
Activity (HepG32): inactive

N/C(=N/CCc1c[nH]c2ccccc12)c1ccncc1
Activity (HCT-15): inactive
Activity (DU-145): inactive
Activity (A549): inactive
Activity (HOP-62): inactive
Activity (IMR-32): inactive
Activity (Rattus norvegicus): 28.2%
Activity (HepG32): inactive

N/C(=N/CCc1c[nH]cn1)c1cnccn1
Activity (HCT-15): inactive
Activity (DU-145): inactive
Activity (A549): inactive
Activity (HOP-62): inactive
Activity (IMR-32): inactive
Activity (Rattus norvegicus): 25.4%
Activity (HepG32): inactive

N/C(=N/Cc1ccncc1)c1ccncc1
Activity (HCT-15): inactive
Activity (DU-145): inactive
Activity (A549): inactive
Activity (HOP-62): inactive
Activity (IMR-32): inactive
Activity (Rattus norvegicus): 31%
Activity (HepG32): inactive

N/C(=N/Cc1ccco1)c1ccncc1
Activity (HCT-15): inactive
Activity (DU-145): inactive
Activity (A549): inactive
Activity (HOP-62): inactive
Activity (IMR-32): inactive
Activity (Rattus norvegicus): 15.2%
Activity (HepG32): inactive

N/C(=N/Cc1ccncc1)c1ccccn1
Activity (HCT-15): inactive
Activity (DU-145): inactive
Activity (A549): inactive
Activity (HOP-62): inactive
Activity (IMR-32): inactive
Activity (Rattus norvegicus): 28.2%
Activity (HepG32): inactive

N/C(=N/Cc1ccncc1)c1cnccn1
Activity (HCT-15): inactive
Activity (DU-145): inactive
Activity (A549): inactive
Activity (HOP-62): inactive
Activity (IMR-32): inactive
Activity (Rattus norvegicus): 32%
Activity (HepG32): inactive

N/C(=N/CCc1c[nH]cn1)c1ccccn1
Activity (HCT-15): inactive
Activity (DU-145): inactive
Activity (A549): inactive
Activity (HOP-62): inactive
Activity (IMR-32): inactive
Activity (Rattus norvegicus): 26.8%
Activity (HepG32): inactive

N/C(=N/Cc1ccco1)c1cnccn1
Activity (HCT-15): inactive
Activity (DU-145): inactive
Activity (A549): inactive
Activity (HOP-62): inactive
Activity (IMR-32): inactive
Activity (Rattus norvegicus): 36.6%
Activity (HepG32): inactive

N/C(=N/CCc1c[nH]cn1)c1ccncc1
Activity (HCT-15): inactive
Activity (DU-145): inactive
Activity (A549): inactive
Activity (HOP-62): inactive
Activity (IMR-32): inactive
Activity (Rattus norvegicus): 22.1%
Activity (HepG32): inactive

N/C(=N/Cc1ccco1)c1ccccn1
Activity (HCT-15): inactive
Activity (DU-145): inactive
Activity (A549): inactive
Activity (HOP-62): inactive
Activity (IMR-32): inactive
Activity (Rattus norvegicus): 28.7%
Activity (HepG32): inactive

N/C(=N/CCCn1ccnc1)c1cnccn1
Activity (HCT-15): inactive
Activity (DU-145): inactive
Activity (A549): inactive
Activity (HOP-62): inactive
Activity (IMR-32): inactive
Activity (Rattus norvegicus): 21.8%
Activity (HepG32): inactive
